Laboratory results reported in article PMC6311893, “Computational prediction of plasma protein binding of cyclic peptides from small molecule experimental data using sparse modeling techniques” (BMC Bioinformatics, 2018).
Positions of bridges follow the written chain, without caps; N, C: chain ends. Residues, ends and D or L forms follow the SMILES beside them.

test system: not listed separately; assay: in vitro; assay type: in vitro ADME; settings: human, plasma, Exp. PPB (fb*)
Description: (§1) As the number of publicly available data of cyclic peptide drugs is small compared to that of small molecule, we additionally designed and experimented with 16 cyclic peptides composed exclusively of natural amino acids. First, linear peptides were synthesized. Then, circularization was achieved by making a disulfide bond between N-terminal and C-terminal cysteine residues and confirmed by TOF/MS and HPLC analyses. Human PPB values fb were determined by the equilibrium dialysis method. Frozen human plasma was thawed immediately at room temperature. Then, the plasma was centrifuged at 3220 g for 10 min to remove clots and the supernatant was collected into a fresh tube. The working solutions of test compounds were prepared in DMSO at a concentration of 200 μM. Then, 3 μL of the working solution was removed for mixing with 597 μL of human plasma to achieve a final concentration of 1 μM (0.5% DMSO). The plasma samples were vortexed thoroughly. The dialysis membranes (HTD 96a/b Dialysis Membrane Strips MWCO 12-14 K, Cat. #1101, Batch# 1141 (12–17)) were soaked in ultrapure water for 60 min to separate the strips, then in 20% ethanol for 20 min, and finally in the dialysis buffer (100 mM sodium phosphate and 150 mM NaCl) for 20 min. The dialysis apparatus was assembled according to the manufacturer’s instructions. Each cell was filled with the spiked plasma sample and dialyzed against equal volume of the dialysis buffer. The assay was performed in duplicate. The dialysis plate was sealed and incubated in an incubator at 37 °C with 5% CO2 at 100 rpm for 6 h. At the end of incubation, the seal was removed and 50 μL of samples from both buffer and plasma chambers were transferred to wells of a 96-well plate. 50 μL of blank plasma was added to each buffer sample and an equal volume of phosphate buffered saline was supplemented to the collected plasma sample. […] Samples in the plate were vortexed for 5 min and centrifuged at 3220 g for 30 min at 4 °C. Then, the supernatant was transferred to a new 96-well plate with 100 μL or 200 μL water (depending on the LC-MS signal response and peak shape) for LC-MS/MS analysis.

| fraction unbound at 6 h, 1 μM | Compound |
| --- | --- |
| 0.76 | N=C(N)NCCC[C@@H]1NC(=O)[C@@H]2CCCN2C(=O)[C@H](CC(N)=O)NC(=O)[C@H](CCC(N)=O)NC(=O)[C@H](Cc2ccccc2)NC(=O)[C@H](Cc2ccc(O)cc2)NC(=O)[C@@H](N)CSSC[C@@H](C(=O)O)NC(=O)CNC1=O [Pep.1] (H-CYFQNPRGC-OH; disulfide 1-9) |
| 0.926 | C[C@@H]1NC(=O)[C@H](Cc2c[nH]c3ccccc23)NC(=O)[C@H](C)NC(=O)[C@@H]2CCCN2C(=O)[C@H](C)NC(=O)[C@@H](N)CSSC[C@@H](C(=O)O)NC(=O)CNC(=O)[C@H](Cc2c[nH]cn2)NC1=O [Pep.14] (H-CAPAWAHGC-OH; disulfide 1-9; N-terminus and C-terminus assumed) |
| 0.847 | CC(C)[C@@H]1NC(=O)[C@H](C)NC(=O)[C@H](CO)NC(=O)[C@H](Cc2ccc(O)cc2)NC(=O)[C@H](C(C)C)NC(=O)[C@H](Cc2ccccc2)NC(=O)[C@@H](N)CSSC[C@@H](C(=O)O)NC1=O [Pep.15] (H-CFVYSAVC-OH; disulfide 1-8; N-terminus and C-terminus assumed) |
| 0.737 | C[C@@H](O)[C@@H]1NC(=O)[C@H](CCCCN)NC(=O)[C@H](Cc2c[nH]c3ccccc23)NC(=O)[C@H](Cc2ccccc2)NC(=O)[C@H](Cc2ccccc2)NC(=O)[C@@H](N)CSSC[C@@H](C(=O)O)NC(=O)[C@H]([C@@H](C)O)NC1=O [Pep.6] (H-CFFWKTTC-OH; disulfide 1-8; N-terminus and C-terminus assumed) |
| 0.995 | CC[C@H](C)[C@@H]1NC(=O)[C@H](Cc2ccc(O)cc2)NC(=O)[C@@H](N)CSSC[C@@H](C(=O)O)NC(=O)CNC(=O)[C@H](CC(C)C)NC(=O)[C@@H]2CCCN2C(=O)[C@H](CC(N)=O)NC(=O)[C@H](CCC(N)=O)NC1=O [Pep.2] (H-CYIQNPLGC-OH; disulfide 1-9; N-terminus and C-terminus assumed) |
| 1 | CC(C)[C@@H]1NC(=O)[C@H](CCCNC(=N)N)NC(=O)[C@@H]2CCCN2C(=O)[C@H](CCCNC(=N)N)NC(=O)[C@H](Cc2c[nH]c3ccccc23)NC(=O)[C@@H](N)CSSC[C@@H](C(=O)O)NC(=O)[C@H](CCCNC(=N)N)NC(=O)[C@H](C)NC1=O [Pep.5] (H-CWRPRVARC-OH; disulfide 1-9; N-terminus and C-terminus assumed) |
| 1 | CC(C)C[C@@H]1NC(=O)[C@H](CC(C)C)NC(=O)[C@H](CCCCN)NC(=O)[C@@H](N)CSSC[C@@H](C(=O)O)NC(=O)[C@H]([C@@H](C)O)NC(=O)[C@H](CCCCN)NC(=O)[C@H](CCCCN)NC1=O [Pep.7] (H-CKLLKKTC-OH; disulfide 1-8; N-terminus and C-terminus assumed) |
| 0.2 | CC(C)C[C@@H]1NC(=O)[C@H](Cc2c[nH]c3ccccc23)NC(=O)[C@H](CC(=O)O)NC(=O)[C@H](CC(=O)O)NC(=O)[C@H](Cc2ccccc2)NC(=O)[C@H](CO)NC(=O)[C@@H](N)CSSC[C@@H](C(=O)O)NC(=O)[C@H](C)NC1=O [Pep.12] (H-CSFDDWLAC-OH; disulfide 1-9; N-terminus and C-terminus assumed) |
| 0.849 | CC[C@H](C)[C@@H]1NC(=O)[C@H](CCCNC(=N)N)NC(=O)[C@@H](N)CSSC[C@@H](C(=O)O)NC(=O)[C@H](Cc2ccc(O)cc2)NC(=O)[C@H](CCCNC(=N)N)NC(=O)[C@H](CCCCN)NC1=O [Pep.16] (H-CRIKRYC-OH; disulfide 1-7; N-terminus and C-terminus assumed) |
| 1 | NC(=O)CC[C@@H]1NC(=O)[C@H](Cc2c[nH]c3ccccc23)NC(=O)[C@@H]2CCCN2C(=O)[C@H](CCC(N)=O)NC(=O)[C@H](CC(N)=O)NC(=O)[C@@H](N)CSSC[C@@H](C(=O)O)NC1=O [Pep.11] (H-CNQPWQC-OH; disulfide 1-7; N-terminus and C-terminus assumed) |
| 0.633 | CC(C)[C@@H]1NC(=O)[C@H](Cc2c[nH]c3ccccc23)NC(=O)[C@@H](N)CSSC[C@@H](C(=O)O)NC(=O)[C@H](CCC(=O)O)NC(=O)[C@H](Cc2ccccc2)NC(=O)[C@H](CCC(N)=O)NC(=O)[C@@H]2CCCN2C(=O)[C@H](Cc2c[nH]cn2)NC1=O [Pep.10] (H-CWVHPQFEC-OH; disulfide 1-9; N-terminus and C-terminus assumed) |

test system: human plasma; assay: in vitro; assay type: in vitro ADME; settings: 6 h, 1 μM
Description: as §1

| Exp. PPB (fb*) | Compound |
| --- | --- |
| 0.242 | N=C(N)NCCC[C@@H]1NC(=O)[C@@H]2CCCN2C(=O)[C@H](CC(N)=O)NC(=O)[C@H](CCC(N)=O)NC(=O)[C@H](Cc2ccccc2)NC(=O)[C@H](Cc2ccc(O)cc2)NC(=O)[C@@H](N)CSSC[C@@H](C(=O)O)NC(=O)CNC1=O [Pep.1] (H-CYFQNPRGC-OH; disulfide 1-9) |
